Data taken from patent publication US20210364534A1, “METHODS OF USING HISTATIN FOR DIAGNOSING AND TREATING A DRY EYE DISEASE OR OTHER OCULAR DISEASES” (THE BOARD OF TRUSTEES OF THE UNIVERSITY OF ILLINOIS, priority 2018, published 2021).
Marks after values point to notes of the source that are not given here. Non-standard residues stand in square brackets, D forms with d. No end group written: not given here. pS = N[C@@H](COP(=O)(O)O)C(=O)O

Assays:
IL8 = IL8 expression induced by BAK application to HCE cells; format: cell-based, Human; conditions: BAK-treated HCE cells, histatin co-treatment
[1] = system: Human corneal epithelial (HCE) cells; assay: WST-1 cell viability of HCE cells exposed to benzalkonium chloride (BAK); format: cell-based; conditions: BAK-treated HCE cells co-treated with histatin; FIG. 5
Method: Experiments were performed in triplicate. *<0.05, **<0.01. Bar represents SEM.
To determine whether histatins could improve symptoms of dry eye disease, cell viability assays were carried out in the presence of the toxic preservative benzalkonium chloride (BAK)(Yang, et al. (2017) Int. J. Mol. Sci. 18(3):509). Human corneal epithelial (HCE) cells were cultivated under standard conditions and viability was assessed using WST-1 reagent, a tetrazolium salt that is reduced to a red formazan dye by the mitochondrial dehydrogenases of metabolically active cells (Bartok, et al. (2015) EXCLI J. 14:123-132).

human corneal epithelia = conditions: Shah, et al. (2017) PLoS One 12(5):e0178030; cited from earlier work
IL6 = IL6 expression induced by BAK application to HCE cells; format: cell-based, Human; conditions: BAK-treated HCE cells, histatin co-treatment
TNFα = TNFα expression induced by BAK application to HCE cells; format: cell-based, Human; conditions: BAK-treated HCE cells, histatin co-treatment
[2] = system: dry eye disease murine model (BAK exposure); assay: Murine model of dry eye disease (benzalkonium chloride exposure), NEI score; format: in vivo; conditions: twice a day topical 80 μM, by 7 days, versus vehicle control (BSS); FIG. 6
Method: Results are based upon the National Eye Institute/Industry (NEI) grading scale (Lemp (1995) CLAO J. 21:221-232) in animals treated with H5 or Balanced Salt Solution (BSS). All experiments were performed in triplicate. *<0.05, **<0.01. Bar represents SEM.

## Histatin-1 (D[pS]HEKRHHGYRRKFHEKHHSHREFPFYGDYGSNYLYDN) [Histatin H1]
IL8
  Decrease in cytokine expression IL8 mRNA: 86%**
[1]
  HCE viability (WST-1): improved
Human corneal epithelia
  migration of human corneal epithelia: promote migration
IL6
  Decrease in cytokine expression IL6 mRNA: 82%**
  Decrease in cytokine expression IL6 protein: 48%*
TNFα
  Decrease in cytokine expression TNFα protein: 12%

## Histatin 5 (DSHAKRHHGYKRKFHEKHHSHRGY) [Histatin H5]
IL8
  Decrease in cytokine expression IL8 mRNA: 46%*
[1]
  HCE viability (WST-1): improved
[2]
  standardized dry eye disease score (NEI score): reduced standardized dry eye disease score (NEI score) in a statistically significant manner
IL6
  Decrease in cytokine expression IL6 mRNA: 45%*
  Decrease in cytokine expression IL6 protein: 45%
TNFα
  Decrease in cytokine expression TNFα protein: 32%**
